Results from patent US8183216B2, “Nucleoside derivatives as inhibitors of viral polymerases” (Istituto Di Ricerche Di Biologia Molecolare P. Angeletti …, priority 2007, dated 2012).

Experiments:
[1] = system: HuH-7 cells containing a subgenomic HCV Replicon; experiment: Assay for inhibition of HCV RNA replication (subgenomic replicon, in situ RNase protection SPA); assay type: cell-based; conditions: Hepatitis C virus; HCV replication assay in HuH-7 replicon cells, activity ranges
Experimental: B. Assay for Inhibition of HCV RNA Replication:
The compounds of the present invention were also evaluated for their ability to affect the replication of Hepatitis C Virus RNA in cultured hepatoma (HuH-7) cells containing a subgenomic HCV Replicon. The details of the assay are described below. This Replicon assay is a modification of that described in V. Lohmann, F. Korner, J-O. Koch, U. Herian, L. Theilmann, and R. Bartenschlager, “Replication of a Sub-genomic Hepatitis C Virus RNAs in a Hepatoma Cell Line,” Science 285:110 (1999).
The assay was an in situ Ribonuclease protection, Scintillation Proximity based-plate assay (SPA). 10,000-40,000 cells were plated in 100-200 μL of media containing 0.8 mg/mL G418 in 96-well cytostar plates (Amersham). Compounds were added to cells at various concentrations up to 100 μM in 1% DMSO at time 0 to 18 h and then cultured for 24-96 h. Cells were fixed (20 min, 10% formalin), permeabilized (20 min, 0.25% Triton X-100/PBS) and hybridized (overnight, 50° C.) with a single-stranded ^33P RNA probe complementary to the (+) strand NS5B (or other genes) contained in the RNA viral genome. Cells were washed, treated with RNAse, washed, heated to 65° C. and counted in a Top-Count Inhibition of replication was read as a decrease in counts per minute (cpm).
Human HuH-7 hepatoma cells, which were selected to contain a subgenomic replicon, carry a cytoplasmic RNA consisting of an HCV 5′ non-translated region (NTR), a neomycin selectable marker, an EMCV IRES (internal ribosome entry site), and HCV non-structural proteins NS3 through NS5B, followed by the 3′ NTR.
Representative compounds were tested in the HCV replication assay and results are reported as EC50 activity ranges in Table C

[2] = molecular target: T1, HCV NS5B RNA-dependent RNA polymerase (Hepatitis C virus genotype 1b, UniProt P26663); experiment: Assay for inhibition of HCV NS5B polymerase (heteromeric RNA template, 3H-UTP incorporation); assay type: biochemical; conditions: activity ranges
T1 construct: RNA-dependent RNA polymerase (NS5B) of the hepatitis C virus (HCV)
Experimental: The effectiveness of the compounds of the present invention as inhibitors of HCV NS5B RNA-dependent RNA polymerase (RdRp) was measured in the following assay.
A. Assay for Inhibition of HCV NS5B Polymerase:
This assay was used to measure the ability of the nucleoside derivatives of the present invention to inhibit the enzymatic activity of the RNA-dependent RNA polymerase (NS5B) of the hepatitis C virus (HCV) on a heteromeric RNA template.
Assay Buffer Conditions: (52.5 μL-total/reaction) • 20 mM Tris, pH 7.5 • 45 mM KCl • 2 mM MgCl2 • 0.01% Triton X-100 • 1 μg BSA, DNase Free • 1 mM DTT • 2 nM DC55-1b.BK or 10 nM DC55-2b.2 • 20 nM heterogeneous template dCoh • UTP 1 uM • ATP 1 uM • CTP 1 uM • GTP 1 uM • 3H-UTP 1,000,000 cpm • 2.5 μl reaction inhibitor compound in H2O
The compounds were tested at various concentrations up to 100 μM final concentration. Nucleoside derivatives were pipetted into wells of a 96-well plate. The enzyme diluted in the reaction buffer was pipetted into the wells and incubated at room temperature for 10 minutes; then the template dCoh was added and incubated for 10 minutes at room temperature. The reaction was initiated by addition of a mixture of nucleotide triphosphates (NTP's), including the radiolabeled UTP, and allowed to proceed at room temperature for 2 hours. Blank samples were done omitting the dCoh template. The reaction was quenched by addition of 50 ul TCA 20% (trichloroacetic acid)/NaPPi 20 mM and the plates were put in ice for 5 minutes. Then, the mixtures were filtered onto Unifilter GF/B 96-well plates (PerkinElmer), washed with TCA 2.5%. P 50 ul/well of scintillator solution (Microscint 20, PerkinElmer) were added and the plates were counted in a scintillator counter.
The percentage of inhibition was calculated according to the following equation: % Inhibition=[1−(cpm in test reaction−cpm in blank)/(cpm in control reaction−cpm in blank)]×100.
Representative compounds were tested in the HCV NS5B polymerase assay and results are reported as IC50 activity ranges in Table B

T1 sequence (P26663 2420-2955): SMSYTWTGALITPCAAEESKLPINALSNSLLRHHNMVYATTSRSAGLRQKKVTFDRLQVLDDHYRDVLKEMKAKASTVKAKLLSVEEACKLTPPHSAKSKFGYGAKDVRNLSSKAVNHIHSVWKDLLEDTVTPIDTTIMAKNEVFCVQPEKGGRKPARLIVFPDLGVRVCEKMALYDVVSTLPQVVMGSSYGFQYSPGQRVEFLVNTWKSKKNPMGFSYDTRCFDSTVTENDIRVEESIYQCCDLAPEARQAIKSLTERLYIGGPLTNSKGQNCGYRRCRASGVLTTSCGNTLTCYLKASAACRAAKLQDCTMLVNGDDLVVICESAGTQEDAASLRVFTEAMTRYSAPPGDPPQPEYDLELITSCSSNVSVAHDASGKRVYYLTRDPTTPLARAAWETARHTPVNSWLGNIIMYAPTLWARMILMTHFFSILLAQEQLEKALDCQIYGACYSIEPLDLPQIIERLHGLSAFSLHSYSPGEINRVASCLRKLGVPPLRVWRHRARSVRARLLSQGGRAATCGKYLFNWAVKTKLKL

| Structure (SMILES) | EC50 [1] [µM] | IC50 [2] [µM] |
| --- | --- | --- |
| C[C@@]1(O)[C@H](O)[C@@H](CO)O[C@H]1n1cc2c3c(ncnc31)NC(=O)c1ccccc1-2 [Compound 1, 2-(2-C-methyl-beta-D-ribofuranosyl)-2,6-dihydro-7H-2,3,5,6-tetraazadibenzo[C,D,H]azulen-7-one] | < 30 |  |
| C[C@@]1(O)[C@H](O)[C@@H](COP(=O)(O)OP(=O)(O)OP(=O)(O)O)O[C@H]1n1cc2c3c(ncnc31)NC(=O)c1ccccc1-2 [Compound 5, 2-[5-O-(hydroxy{[hydroxy(phosphonooxy)phosphoryl]oxy}phosphoryl)-2-C-methyl-beta-D-ribofuranosyl]-2,6-dihydro-7H-2,3,5,6-tetraazadibenzo[cd,h]azulen-7-one] |  | < 1 |
| CC1(O)C(n2cc3c4c(ncnc42)NCc2sccc2-3)O[C@H](CO)[C@H]1O (single isomer, unassigned) [Compound 4, 2-(2-C-methyl-beta-D-ribofuranosyl)-6,7-dihydro-2H-8-thia-2,3,5,6-tetraazabenzo[CD]cyclopenta[H]azulene] | < 30 |  |
| C[C@@]1(O)[C@H](O)[C@@H](COP(=O)(O)OP(=O)(O)OP(=O)(O)O)O[C@H]1n1cc2c3c(ncnc31)NCc1sccc1-2 [Compound 7, 2-[5-O-(hydroxy{[hydroxy(phosphonooxy)phosphoryl]oxy}phosphoryl)-2-C-methyl-beta-D-ribofuranosyl]-6,7-dihydro-2H-8-thia-2,3,5,6-tetraazabenzo[cd]cyclopenta[h]azulene] |  | 1 to 30 |
| C[C@@]1(O)[C@H](O)[C@@H](CO)O[C@H]1n1cc2c3c(ncnc31)NCc1ccccc1-2 [Compound 2, 2-(2-C-methyl-beta-D-ribofuranosyl)-6,7-dihydro-2H-2,3,5,6-tetraazadibenzo[cd,h]azulene] | 30 to 50 |  |
| C[C@@]1(O)[C@H](O)[C@@H](COP(=O)(O)OP(=O)(O)OP(=O)(O)O)O[C@H]1n1cc2c3c(ncnc31)NCc1ccccc1-2 [Compound 6, 2-[5-O-(hydroxy{[hydroxy(phosphonooxy)phosphoryl]oxy}phosphoryl)-2-C-methyl-beta-D-ribofuranosyl]-6,7-dihydro-2H-2,3,5,6-tetraazadibenzo[cd,h]azulene] |  | 1 to 30 |
| CC1(O)C(n2cc3c4c(ncnc42)NC(=O)c2sccc2-3)O[C@H](CO)[C@H]1O (single isomer, unassigned) [Compound 3, 2-(2-C-methyl-beta-D-ribofuranosyl)-2,6-dihydro-7H-8-thia-2,3,5,6-tetraazabenzo[CD]cyclopenta[H]azulen-7-one] | < 30 |  |
| C[C@@]1(O)[C@H](O)[C@@H](COP(=O)(O)OP(=O)(O)OP(=O)(O)O)O[C@H]1n1cc2c3c(ncnc31)NC(=O)c1sccc1-2 [Compound 8, 2-[5-O-(hydroxy{[hydroxy(phosphonooxy)phosphoryl]oxy}phosphoryl)-2-C-methyl-beta-D-ribofuranosyl]-2,6-dihydro-7H-8-thia-2,3,5,6-tetraazabenzo[cd]cyclopenta[h]azulen-7-one] |  | < 1 |
